Results on 36 compounds are retold here after patent US8669249B2, “Poly (ADP-ribose) polymerase (PARP) inhibitors” (Takeda Pharmaceutical Company Limited, priority 2009, dated 2014).

The IC50 is the concentration that gives 50% inhibition. A higher IC50 goes with a need for much substance.

One test deals with T1, PARP (Homo sapiens, UniProt P09874).
T1 construct: purchased Trevigen 4684-096-K HT (kit); 4684-096-01 (PARP enzyme)
T1 sequence (P09874 whole entry): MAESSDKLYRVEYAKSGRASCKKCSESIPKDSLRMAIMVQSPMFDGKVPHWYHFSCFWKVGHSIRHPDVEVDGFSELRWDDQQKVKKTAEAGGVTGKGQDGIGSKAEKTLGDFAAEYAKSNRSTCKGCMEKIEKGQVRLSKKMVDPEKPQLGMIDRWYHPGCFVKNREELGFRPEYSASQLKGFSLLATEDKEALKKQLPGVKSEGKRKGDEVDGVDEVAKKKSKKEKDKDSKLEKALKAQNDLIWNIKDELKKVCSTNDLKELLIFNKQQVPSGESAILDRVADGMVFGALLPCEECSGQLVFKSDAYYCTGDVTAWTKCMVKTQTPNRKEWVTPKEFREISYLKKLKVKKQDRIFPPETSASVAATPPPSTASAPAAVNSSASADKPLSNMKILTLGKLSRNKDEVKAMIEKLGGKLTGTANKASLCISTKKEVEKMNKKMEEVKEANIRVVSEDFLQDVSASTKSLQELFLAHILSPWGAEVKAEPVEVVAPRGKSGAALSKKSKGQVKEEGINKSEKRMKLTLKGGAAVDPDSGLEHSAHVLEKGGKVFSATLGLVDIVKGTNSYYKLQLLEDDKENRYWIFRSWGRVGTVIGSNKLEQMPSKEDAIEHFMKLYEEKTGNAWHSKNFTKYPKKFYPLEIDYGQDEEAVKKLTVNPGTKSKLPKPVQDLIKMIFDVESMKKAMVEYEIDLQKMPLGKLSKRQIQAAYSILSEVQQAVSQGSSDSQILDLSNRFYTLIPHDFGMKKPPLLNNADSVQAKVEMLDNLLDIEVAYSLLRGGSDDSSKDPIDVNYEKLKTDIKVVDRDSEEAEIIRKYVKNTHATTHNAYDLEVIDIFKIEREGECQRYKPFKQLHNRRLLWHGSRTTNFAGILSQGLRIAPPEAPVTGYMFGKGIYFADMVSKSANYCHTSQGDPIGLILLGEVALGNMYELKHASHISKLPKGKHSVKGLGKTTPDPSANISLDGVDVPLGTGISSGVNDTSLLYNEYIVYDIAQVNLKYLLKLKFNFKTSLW
Briefly: PARP ELISA (ELISA-based colorimetric PARP/Apoptosis Assay kit, Trevigen). Particulars: pIC50=-log10 IC50, IC50 in mol/L; inhibition of PARP catalytic activity. It counts as biochemical. As for the experimental part:
Inhibition Constant (IC50) from PARP ELISA
After 10 minutes of catalysis the reaction is quenched by solvent aspiration followed by irrigation of the assay wells 4 times with phosphate buffered saline (PBS) containing 0.1% t-Octylphenoxypolyethoxyethanol (Triton® X-100). Mouse Anti-poly ADP ribose (PAR) monoclonal antibody, goat antimouse immunoglobulin G (IgG)-horse radish peroxidase (HRP) conjugate and HRP substrate are added according to the manufacture's specifications to generate a colorimetric signal proportional to PARP catalytic activity.
For orientation: ELISA stands for enzyme-linked immunosorbent assay.
`CCNC(=O)c1ccc(N2CCC(Oc3ccc4c(c3)NC(=O)C(C)O4)CC2)cc1` (stereo not drawn) [Compound 396, N-Ethyl-4-(4-(2-methyl-3-oxo-3,4-dihydro-2H-benzo[b][1,4]oxazin-6-yloxy)piperidin-1-yl)benzamide] had an IC50 greater than 200 nM.
As to `CCNC(=O)c1ccc(N2CCN(Cc3cc4c(c(-c5ccccc5)c3)OC(C)C(=O)N4)CC2)cc1` (stereo not drawn) [Compound 349, N-Ethyl-4-(4-((2-methyl-3-oxo-8-phenyl-3,4-dihydro-2H-benzo[b][1,4]oxazin-6-yl)methyl)piperazin-1-yl)benzamide], the 50% inhibitory concentration (IC50) was greater than 200 nM.
The same measure, in the same setting: the same measure for `Cc1c(CN2CCC(c3ccc(Cl)cc3)CC2)ccc2c1NC(=O)C(C)O2` (stereo not drawn) [Compound 327, 6-((4-(4-Chlorophenyl)piperidin-1-yl)methyl)-2,5-dimethyl-2H-benzo[b][1,4]oxazin-3(4H)-one]: greater than 200 nM.
Same read-out and setting: for `CC1Oc2cc(F)c(CN3CCC(c4ccc(Cl)cc4)CC3)cc2NC1=O` (stereo not drawn) [Compound 332, 6-((4-(4-Chlorophenyl)piperidin-1-yl)methyl)-7-fluoro-2-methyl-2H-benzo[b][1,4]oxazin-3(4H)-one] the value was greater than 200 nM; for `C=CCc1cc(CN2CCN(c3ccc(C(=O)NCC)cc3)CC2)cc2c1OC(C)C(=O)N2` (stereo not drawn) [Compound 356, 4-(4-((8-Allyl-2-methyl-3-oxo-3,4-dihydro-2H-benzo[b][1,4]oxazin-6-yl)methyl)piperazin-1-yl)-N-ethylbenzamide], 79.4 nM.
For the compound `CC1Oc2c(Cl)cc(CN3CCN(c4ccc(C(=O)NC5CC5)cc4)CC3)cc2NC1=O` (stereo not drawn) [Compound 311, 4-(4-((8-Chloro-2-methyl-3-oxo-3,4-dihydro-2H-benzo[b][1,4]oxazin-6-yl)methyl)piperazin-1-yl)-N-cyclopropylbenzamide], 39.8 nM corresponded to half-maximal inhibition (IC50).
As for `CCNC(=O)c1ccc(N2CCC(Cc3ccc4c(c3)NC(=O)C(C)O4)CC2)cc1` (stereo not drawn) [Compound 393, N-Ethyl-4-(4-((2-methyl-3-oxo-3,4-dihydro-2H-benzo[b][1,4]oxazin-6-yl)methyl)piperidin-1-yl)benzamide], the IC50 was greater than 200 nM.
Same read-out and setting: for `CC1Oc2ccc(OC3CCN(c4ccc(C(=O)NC5CC5)cc4)CC3)cc2NC1=O` (stereo not drawn) [Compound 397, N-Cyclopropyl-4-(4-(2-methyl-3-oxo-3,4-dihydro-2H-benzo[b][1,4]oxazin-6-yloxy)piperidin-1-yl)benzamide] the value was greater than 200 nM; for `CC1Oc2c(Cl)cc(CN3CCN(c4ccc(C(=O)O)cc4)CC3)cc2NC1=O` (stereo not drawn) [Compound 307, 4-(4-((8-Chloro-2-methyl-3-oxo-3,4-dihydro-2H-benzo[b][1,4]oxazin-6-yl)methyl)piperazin-1-yl)benzoic acid], greater than 200 nM.
In turn, `CCNC(=O)c1ccc(N2CCN(Cc3cc(F)c4c(c3)NC(=O)C(C)O4)CC2)nc1` (stereo not drawn) [Compound 315, N-Ethyl-6-(4-((8-fluoro-2-methyl-3-oxo-3,4-dihydro-2H-benzo[b][1,4]oxazin-6-yl)methyl)piperazin-1-yl)nicotinamide] gave an IC50 of 50.1 nM.

The target of the next test is T2, catalytic domain of Human PARP (Homo sapiens, UniProt P09874).
T2 construct: The catalytic domain of Human PARP was cloned and prepared; made in house
T2 sequence (P09874 788-1014 limits assumed): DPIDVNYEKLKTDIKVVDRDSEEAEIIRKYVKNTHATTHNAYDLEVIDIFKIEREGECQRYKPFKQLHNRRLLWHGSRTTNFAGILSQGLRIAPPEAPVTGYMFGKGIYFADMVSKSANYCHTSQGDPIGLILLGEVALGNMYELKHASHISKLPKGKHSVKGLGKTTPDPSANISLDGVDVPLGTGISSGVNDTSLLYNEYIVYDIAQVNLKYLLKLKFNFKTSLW
Briefly: Biacore surface plasmon resonance affinity assay. Format: binding. The note with it: pKD=-log10 KD, KD in mol/L; Biacore T100, 25° C.; read-out: pKD (converted). An outline of the steps: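 Binding at 25° C on Biacore T100: 1 min compound association then 5 min dissociation (50 μL/min) over immobilized PARP catalytic domain, buffer HBS-P plus 1% DMSO, 0.5 mM TCEP, 5 mM MgCl2, 2-fold dilution series. KD derived as koff/kon from fitted association and dissociation phases.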
Regarding `CCCNC(=O)CN1CCN(Cc2ccc3c(c2)NC(=O)C(C)O3)CC1` (stereo not drawn) [Compound 175, 2-(4-((2-Methyl-3-oxo-3,4-dihydro-2H-benzo[b][1,4]oxazin-6-yl)methyl)piperazin-1-yl)-N-propylacetamide], the Kd is greater than 10000 nM.
Still for that read-out and setting: the same measure for `CCc1ccc2c(c1)NC(=O)CO2` [Compound 122, 6-Ethyl-2H-benzo[b][1,4]oxazin-3(4H)-one]: no less than 100000 nM; for `O=C1Nc2cc(CN3CCC(c4ccccc4)CC3)ccc2OC1F` (stereo not drawn) [Compound 96, 2-Fluoro-6-((4-phenylpiperidin-1-yl)methyl)-2H-benzo[b][1,4]oxazin-3(4H)-one]: 126 to 1000 nM; for `CC1Oc2ccc(CN(C)CC(=O)N3CCCCC3)cc2NC1=O` (stereo not drawn) [Compound 138, 2-Methyl-6-((methyl(2-oxo-2-(piperidin-1-yl)ethyl)amino)methyl)-2H-benzo[b][1,4]oxazin-3(4H)-one]: 12600 to 79400 nM.
On the same count and under the same terms, the same measure for `CC1Oc2ccc(CCCO)cc2NC1=O` (stereo not drawn) [Compound 188, 6-(3-Hydroxypropyl)-2-methyl-2H-benzo[b][1,4]oxazin-3(4H)-one]: greater than 10000 nM; for `O=C1COc2ccc(C(=O)O)cc2N1` [Compound 104, 3-Oxo-3,4-dihydro-2H-benzo[b][1,4]oxazine-6-carboxylic acid]: no less than 100000 nM; for `CC1Oc2cc(CN3CCC(c4nc5ccccc5[nH]4)CC3)ccc2NC1=O` (stereo not drawn) [Compound 203, 7-((4-(1H-Benzo[d]imidazol-2-yl)piperidin-1-yl)methyl)-2-methyl-2H-benzo[b][1,4]oxazin-3(4H)-one]: no less than 100000 nM.
Same read-out and setting: the same measure for `CC1Oc2ccc(CN3CCC(N(C4CC4)S(=O)(=O)c4ccccc4)CC3)cc2NC1=O` (stereo not drawn) [Compound 42, N-Cyclopropyl-N-(1-((2-methyl-3-oxo-3,4-dihydro-2H-benzo[b][1,4]oxazin-6-yl)methyl)piperidin-4-yl)benzenesulfonamide]: 1260 to 10000 nM; for `CC1Oc2ccc(CN3CCN(CCO)CC3)cc2NC1=O` (stereo not drawn) [Compound 86, 6-((4-(2-Hydroxyethyl)piperazin-1-yl)methyl)-2-methyl-2H-benzo[b][1,4]oxazin-3(4H)-one]: 12600 to 79400 nM; for `CC1Oc2ccc(CN3CCC(c4ccc(Cl)cc4)CC3)cc2NC1=O` (stereo not drawn) [Compound 38, 6-((4-(4-Chlorophenyl)piperidin-1-yl)methyl)-2-methyl-2H-benzo[b][1,4]oxazin-3(4H)-one]: no more than 10 nM.
As for `O=C1COc2ccc(CNCC3CCCCC3)cc2N1` [Compound 30, 6-((Cyclohexylmethylamino)methyl)-2H-benzo[b][1,4]oxazin-3(4H)-one], the Kd was 1260 to 10000 nM.
The same measure, in the same setting: for `CC1Oc2cc(CNc3ncc(-c4ccccc4)n3C)ccc2NC1=O` (stereo not drawn) [Compound 94, 2-Methyl-7-((1-methyl-5-phenyl-1H-imidazol-2-ylamino)methyl)-2H-benzo[b][1,4]oxazin-3(4H)-one] the value was 1260 to 10000 nM.
On the same count and under the same terms, the same measure for `CC1Oc2ccc(CN3CCN(C4CCCCCC4)CC3)cc2NC1=O` (stereo not drawn) [Compound 51, 6-((4-Cycloheptylpiperazin-1-yl)methyl)-2-methyl-2H-benzo[b][1,4]oxazin-3(4H)-one]: 126 to 1000 nM.
The same measure, in the same setting: for `COC(=O)CN1CCN(Cc2ccc3c(c2)NC(=O)C(C)O3)CC1=O` (stereo not drawn) [Compound 78, Methyl 2-(4-((2-methyl-3-oxo-3,4-dihydro-2H-benzo[b][1,4]oxazin-6-yl)methyl)-2-oxopiperazin-1-yl)acetate] the value was 1260 to 10000 nM.
Consider `CC1Oc2ccc(CN3CC=C(c4ccc(F)cc4)CC3)cc2NC1=O` (stereo not drawn) [Compound 34, 6-((4-(4-Fluorophenyl)-5,6-dihydropyridin-1(2H)-yl)methyl)-2-methyl-2H-benzo[b][1,4]oxazin-3(4H)-one], for which the Kd was 12.6 to 100 nM.
Regarding `CNC(=O)c1ccc(-c2ccc3c(c2)NC(=O)C(C)O3)cc1` (stereo not drawn) [Compound 151, N-Methyl-4-(2-methyl-3-oxo-3,4-dihydro-2H-benzo[b][1,4]oxazin-6-yl)benzamide], the Kd is greater than 10000 nM.
`CC1Oc2ccc(CN3CCN(C4CCCC4)CC3)cc2NC1=O` (stereo not drawn) [Compound 40, 6-((4-Cyclopentylpiperazin-1-yl)methyl)-2-methyl-2H-benzo[b][1,4]oxazin-3(4H)-one]: the Kd was 126 to 1000 nM.
With `CC1Oc2ccc(CN3Cc4ccc(F)cc4C3)cc2NC1=O` (stereo not drawn) [Compound 241, 6-((5-Fluoroisoindolin-2-yl)methyl)-2-methyl-2H-benzo[b][1,4]oxazin-3(4H)-one], the Kd is no more than 10 nM.
Still for that read-out and setting: the same measure for `CC(=O)Nc1cccc(-c2ccc3c(c2)NC(=O)C(C)O3)c1` (stereo not drawn) [Compound 148, N-(3-(2-Methyl-3-oxo-3,4-dihydro-2H-benzo[b][1,4]oxazin-6-yl)phenyl)acetamide]: greater than 10000 nM.
On the same count and under the same terms, the same measure for `O=C1COc2ccc(C(=O)N3CCC(c4ccccc4)CC3)cc2N1` [Compound 105, 6-(4-phenylpiperidine-1-carbonyl)-2H-benzo[b][1,4]oxazin-3(4H)-one]: no less than 100000 nM; for `CC1Oc2cc(CN3CCC(c4ccccc4N)CC3)ccc2NC1=O` (stereo not drawn) [Compound 204, 7-((4-(2-aminophenyl)piperidin-1-yl)methyl)-2-methyl-2H-benzo[b][1,4]oxazin-3(4H)-one]: 12600 to 79400 nM; for `CC1Oc2ccc(CN(C)CC(=O)NCc3ccc(Cl)cc3)cc2NC1=O` (stereo not drawn) [Compound 136, N-(4-Chlorobenzyl)-2-(methyl((2-methyl-3-oxo-3,4-dihydro-2H-benzo[b][1,4]oxazin-6-yl)methyl)amino)acetamide]: 1260 to 10000 nM.
On the same count and under the same terms, for `CCC1Oc2ccc(CN3CCC(c4ccc(Cl)cc4)CC3)cc2NC1=O` (stereo not drawn) [Compound 194, 6-((4-(4-Chlorophenyl)piperidin-1-yl)methyl)-2-ethyl-2H-benzo[b][1,4]oxazin-3(4H)-one] the value was no less than 100000 nM; for `CC1Oc2cc(CN3CCC(c4ccc(Cl)cc4)CC3)ccc2NC1=O` (stereo not drawn) [Compound 200, 7-((4-(4-Chlorophenyl)piperidin-1-yl)methyl)-2-methyl-2H-benzo[b][1,4]oxazin-3(4H)-one], 12600 to 79400 nM; for `O=C1COc2ccc(C(=O)CN3CCC(c4ccccc4)CC3)cc2N1` [Compound 114, 6-(2-(4-Phenylpiperidin-1-yl)acetyl)-2H-benzo[b][1,4]oxazin-3(4H)-one], 12600 to 79400 nM.
On to `CC1Oc2ccc(CN(C)c3ccccn3)cc2NC1=O` (stereo not drawn) [Compound 67, 2-Methyl-6-((methyl(pyridin-2-yl)amino)methyl)-2H-benzo[b][1,4]oxazin-3(4H)-one], for which the Kd is 12600 to 79400 nM.
